Assays:
[1] = system: PD-L1 on PC-3 carcinoma cells; assay: Cell-surface PD-L1 expression by flow cytometry, PC-3; assay type: cell-based, human; conditions: PC-3 (prostate), vorinostat 3 μM 5 h daily x4 days or entinostat 500 nM 72 h; for PD-L1 % Positive: DMSO controls 74.1 / 55.8; for PD-L1 MFI: DMSO controls 207 / 146
[2] = system: HLA-ABC on NCI-H460 carcinoma cells; assay: Cell-surface HLA-ABC expression by flow cytometry, NCI-H460; assay type: cell-based, human; conditions: NCI-H460 (lung), vorinostat 3 μM 5 h daily x4 days or entinostat 500 nM 72 h; for HLA-ABC % Positive: DMSO controls 86.6 / 99.2; for HLA-ABC MFI: DMSO controls 371 / 822
[3] = system: MICA/B on DU 145 carcinoma cells; assay: Cell-surface MIC-A/B expression by flow cytometry, DU 145; assay type: cell-based, human; conditions: DU 145 (prostate); vorinostat 3 μM 5 h daily x4 days or entinostat 500 nM 72 h; DMSO controls 42.9 / 58.9
[4] = system: PD-L1 on NCI-H441 carcinoma cells; assay: Cell-surface PD-L1 expression by flow cytometry, NCI-H441; conditions: NCI-H441 (lung); vorinostat 3 μM 5 h daily x4 days or entinostat 500 nM 72 h; DMSO controls 958 / 1031
in vitro = conditions: human, PC-3 prostate carcinoma cells
[5] = system: PD-L1 on NCI-H460 carcinoma cells; assay: Cell-surface PD-L1 expression by flow cytometry, NCI-H460; assay type: cell-based, human; conditions: NCI-H460 (lung), vorinostat 3 μM 5 h daily x4 days or entinostat 500 nM 72 h; for PD-L1 % Positive: DMSO controls 68.0 / 89.5; for PD-L1 MFI: DMSO controls 199 / 492
[6] = system: PD-L1 on AsPC-1 carcinoma cells; assay: Cell-surface PD-L1 expression by flow cytometry, AsPC-1; assay type: cell-based, human; conditions: AsPC-1 (pancreas), vorinostat 3 μM 5 h daily x4 days or entinostat 500 nM 72 h; for PD-L1 % Positive: DMSO controls 1.4 / 1.9; for PD-L1 MFI: DMSO controls 87.5 / 91.4
[7] = system: MICA/B on AsPC-1 carcinoma cells; assay: Cell-surface MIC-A/B expression by flow cytometry, AsPC-1; assay type: cell-based, human; conditions: AsPC-1 (pancreas); vorinostat 3 μM 5 h daily x4 days or entinostat 500 nM 72 h; DMSO controls 1.9 / 1.4
[8] = system: PD-L1 on DU 145 carcinoma cells; assay: Cell-surface PD-L1 expression by flow cytometry, DU 145; assay type: cell-based, human; conditions: DU 145 (prostate), vorinostat 3 μM 5 h daily x4 days or entinostat 500 nM 72 h; for PD-L1 % Positive: DMSO controls 76.3 / 81.4; for PD-L1 MFI: DMSO controls 200 / 226
[9] = system: HLA-ABC on DU 145 carcinoma cells; assay: Cell-surface HLA-ABC expression by flow cytometry, DU 145; assay type: cell-based, human; conditions: DU 145 (prostate), vorinostat 3 μM 5 h daily x4 days or entinostat 500 nM 72 h; for HLA-ABC % Positive: DMSO controls 100 / 100; for HLA-ABC MFI: DMSO controls 200 / 226
[10] = system: HLA-ABC on AsPC-1 carcinoma cells; assay: Cell-surface HLA-ABC expression by flow cytometry, AsPC-1; assay type: cell-based, human; conditions: AsPC-1 (pancreas), vorinostat 3 μM 5 h daily x4 days or entinostat 500 nM 72 h; for HLA-ABC % Positive: DMSO controls 98.5 / 99.1; for HLA-ABC MFI: DMSO controls 625 / 670
[11] = system: MICA/B on NCI-H460 carcinoma cells; assay: Cell-surface MIC-A/B expression by flow cytometry, NCI-H460; assay type: cell-based, human; conditions: NCI-H460 (lung); vorinostat 3 μM 5 h daily x4 days or entinostat 500 nM 72 h; DMSO controls 4.4 / 20.3
[12] = system: PD-L1 in lung and prostate carcinoma xenografts (NCI-H460, PC-3, DU 145); assay: Human xenografts, PD-L1 immunofluorescence; assay type: in vivo, nu/nu mice; conditions: vorinostat 150 mg/kg p.o. 4 daily doses, excised 24 h after last dose; entinostat 20 mg/kg p.o. single dose 72 h before excision; vs DMSO
Description: Female nu/nu mice were implanted with NCI-H460 (lung) or PC-3 (prostate) carcinoma cells. […] Frozen specimens were examined for cell-surface expression of PD-L1 by immunofluorescence using antihuman PD-L1 (clone SP142) and goat anti-rabbit AF594, and counterstained with DAPI-containing mounting medium.
Tumors were excised 24 h after the last dose. […] Frozen sections were examined for cell-surface expression of human PD-L1 by immunofluorescence. Confocal images are shown at 20× magnification and are representative of 3 animals/treatment. Relative PD-L1 expression levels were calculated using ImageJ software by normalizing the intensity values to their respective DMSO treated controls.

[13] = system: MICA/B on PC-3 carcinoma cells; assay: Cell-surface MIC-A/B expression by flow cytometry, PC-3; assay type: cell-based, human; conditions: PC-3 (prostate); vorinostat 3 μM 5 h daily x4 days or entinostat 500 nM 72 h; DMSO controls 33.2 / 43.7
[14] = system: HLA-ABC on PC-3 carcinoma cells; assay: Cell-surface HLA-ABC expression by flow cytometry, PC-3; assay type: cell-based, human; conditions: PC-3 (prostate), vorinostat 3 μM 5 h daily x4 days or entinostat 500 nM 72 h; for HLA-ABC % Positive: DMSO controls 99.8 / 99.9; for HLA-ABC MFI: DMSO controls 699 / 801
[15] = system: MICA/B on NCI-H441 carcinoma cells; assay: Cell-surface MIC-A/B expression by flow cytometry, NCI-H441; assay type: cell-based, human; conditions: NCI-H441 (lung); vorinostat 3 μM 5 h daily x4 days or entinostat 500 nM 72 h; DMSO controls 23.5 / 16.7
[16] = system: HLA-ABC on NCI-H441 carcinoma cells; assay: Cell-surface HLA-ABC expression by flow cytometry, NCI-H441; assay type: cell-based, human; conditions: NCI-H441 (lung), vorinostat 3 μM 5 h daily x4 days or entinostat 500 nM 72 h; for HLA-ABC % Positive: DMSO controls 99.9 / 99.9; for HLA-ABC MFI: DMSO controls 1182 / 1232
[17] = in vivo; cited from earlier work
[18] = system: host immune suppressor cells; conditions: preclinical models; cited from earlier work
histone acetylation = conditions: following the administration of entinostat; cited from earlier work
[19] = system: human lung and prostate carcinoma cells (DU 145, PC-3, NCI-H460, NCI-H441); assay: Avelumab-mediated ADCC, 4 h 111In release assay with NK effectors; assay type: cell-based; conditions: cells pre-exposed to vorinostat 3 μM (5 h daily x4 days) or entinostat 500 nM (72 h) vs DMSO; avelumab 2 ng/mL; NK effectors E:T=30:1
Description: (§1) NK lysis was performed in the presence of avelumab or isotype control (2 ng/mL).
(§2) Results are presented as mean±S.E.M. from 3 replicate wells, and are representative of 2-4 independent experiments. […] For CD16 blocking, NK cells were pretreated for 2 h with anti-CD16 blocking antibody prior to being used as effectors. Results are presented as mean±S.E.M. from 3 replicate wells, and are representative of 2-4 independent experiments.

[20] = system: human carcinoma cell lines; conditions: cited from earlier work
[21] = system: whole PBMCs or dendritic cells isolated from PBMCs; conditions: cited from earlier work
[22] = system: NCI-H460 lung carcinoma cells; assay: Avelumab-mediated NK lysis with CD16 blocking; assay type: cell-based, human; conditions: NK cells pretreated 2 h with anti-CD16 blocking antibody 12 μg/mL; targets exposed to vorinostat or DMSO; avelumab 2 ng/mL
Description: as §1
NK cells were pretreated for 2 h with anti-CD16 blocking antibody (12 μg/mL) prior to being used as effectors.
as §2

Molecule	PD-L1 % Positive [1] [%]	PD-L1 MFI [1]	HLA-ABC % Positive [2] [%]	HLA-ABC MFI [2]	MIC-A/B % Positive [3] [%]	PD-L1 MFI [4]	PD-L1 % Positive [5] [%]	PD-L1 MFI [5]	PD-L1 % Positive [6] [%]	PD-L1 MFI [6]	MIC-A/B % Positive [7] [%]	PD-L1 % Positive [8] [%]	PD-L1 MFI [8]	HLA-ABC % Positive [9] [%]	HLA-ABC MFI [9]	HLA-ABC % Positive [10] [%]	HLA-ABC MFI [10]	MIC-A/B % Positive [11] [%]	PD-L1 expression in vivo in xenografts (immunofluorescence) [12]	MIC-A/B % Positive [13] [%]	also measured
O=C(CCCCCCC(=O)Nc1ccccc1)NO [Vorinostat]	83.3	251	97.1	608	93.9	1053	86.9	278	1.4	90.4	0.8	96.0	354	100	354	99.2	806	70.6	enhance PD-L1 expression	58.1	viability (in vitro): 99%; HLA-ABC % Positive [14]: 99.7%; HLA-ABC MFI [14]: 816; MIC-A/B % Positive [15]: 21.1%; HLA-ABC % Positive [16]: 99.9%; HLA-ABC MFI [16]: 1284
Nc1ccccc1NC(=O)c1ccc(CNC(=O)OCc2cccnc2)cc1 [Entinostat, N-(2-aminophenyl)-4-[N-(pyridine-3-yl)methoxycarbonylamino-methyl]-benzamide]	86.4	240	94.3	547	94.3	1027	90.2	507	9.9	126	6.5	99.5	705	100	705	99.0	126	69.8	enhance PD-L1 expression	91.5	half-life [17]: about 100 hours; effect on host immune suppressor cells [18]: reduce the number of, and inhibit the function of, host immune suppressor cells; persistence of changes in histone acetylation (histone acetylation): persist for several weeks; Sensitivity of carcinoma cells to ADCC mediated by avelumab (NK-cell lysis) [19]: significantly increased sensitivity; HLA-ABC % Positive [14]: 100%; HLA-ABC MFI [14]: 1144; MIC-A/B % Positive [15]: 46.2%; HLA-ABC % Positive [16]: 99.9%; HLA-ABC MFI [16]: 1375
avelumab: fully human anti-PD-L1 IgG1 antibody																					human carcinoma cell lines in which ADCC was induced ([20]; PBMCs as effectors): 8 out of 18; cell lines with augmented lysis after IFN-γ pretreatment ([20]; tumor cell lines pretreated with IFN-γ): 4 out of 10; lysis of PBMCs or dendritic cells in NK-mediated ADCC assays [21]: Little or no lysis; Avelumab-mediated lysis of carcinoma cells after CD16 neutralization [22]: decreased by CD16 neutralization
